# Non-standard residues stand in square brackets, D forms with d. No end group written: not given here. pGlu = O=C1CC[C@@H](C(=O)O)N1
# Experiments:
# Hydra [1] = test: Mitogen action on cell division in Hydra; format: in vivo
# Hydra [2] = test: Head-specific determination in Hydra (interstitial parent cell determined to the nerve cell); format: in vivo
# embryonal brain cells = test: Growth-stimulating action on embryonal brain cells; format: cell-based; conditions: mammals
# [3] = Blood pressure effect upon intraventricular administration; format: in vivo; conditions: mammals
substance,measurement,setting,value
[pGlu]PPGGSKVILF [peptide of the invention],"mitogen action, cell division of all types of cells",Hydra [1],acts as a mitogen
same,concentration at which the effect occurs (mitogen),Hydra [1]; order of magnitude,~10^-10 M
same,head-specific determination,Hydra [2],responsible for head-specific determination
same,concentration at which the effect occurs (head-specific determination),Hydra [2]; order of magnitude,~10^-10 M
same,action on growth of embryonal brain cells,embryonal brain cells,growth-stimulating action
same,effect on blood pressure,[3],hypertensive (pressor) effect

# Reference: patent US4457917A, “Peptide, process for its preparation and pharmaceutical composition containing same” (Max-Planck-Gesellschaft zur Foerderung der Wissenschaften …, priority 1981, dated 1984)
